Laboratory results reported in patent US10532084B2, “Chondrocyte extracellular matrix-derived peptide” (EYEBIO KOREA, priority 2016, dated 2020).
“Also recorded” adds a separate entry of the source.

What was measured:
corneal surface = assay: Corneal surface irregularity (smoothness) score, dry eye model; format: in vivo, NOD.B10.H2b mice; details: day 10 after removal of dry stress; grades 0-5; normal 0.33±0.58, DS 10D 4.33±0.58
Method: (§1) NOD.B10.H2^b mice were purchased from Jackson Laboratory (Bar Harbor, Me., USA). Animal experiments were carried out in accordance with the guidelines approved by the University of Inje (No.; 2014-029) and ARVO regarding animal use for eye and vision research. NOD.B10.H2^b mice at 12-16 weeks old were exposed to 40-50% ambient humidity and ventilation using a fan for 18 hours a day as dry stress and subcutaneously injected with 0.5 mg/0.2 mL muscarinic receptor blocker. In addition, scopolamine hydrobromide (Sigma-Aldrich, St. Louis, Mo.) was injected alternately to the […] hips four times a day for 10 days at 9 am, […].
(§2) After 10 days of ocular dry stress, the scopolamine injection was stopped, and switched to a normal humidity and temperature environment and the dry stress was removed, 10 mg/ml Hyp-[…] and collagen were dissolved in normal saline to administer 5 μL each 5 times a day for 10 days, and normal saline and 0.1% HA were administered to the eyeball 5 times a day for 10 days. Three mice were used in each of the six experimental groups using both eyes of the mice and all experiments were repeated.
As for the curvature of the corneal surface, a reflected image of the white ring was obtained from an optical fiber ring illumination of a stereoscopic microscope (SZX7; Olympus) after anesthetizing the animal. Corneal smoothness was assessed by grading the irregularity of corneal epithelial cells reflected in the white ring of the digital image. Corneal irregularity severity score was calculated by dividing the reflection ring into quadrants and grading into 5 grades according to degree of irregularity. No irregularity is grade 0, irregularity of ¼ (quarter) is grade 1; irregularity of 2/4 (two-quarters) is grade 2; irregularity of ¾ (three-quarters) is grade 3; entire irregularity is grade 4; and […] and thus all the rings were confirmed.
The degree of corneal curvature in each experiment group was quantified to confirm the bendability of the corneal surface.

[1] = test system: conjunctival goblet cells; assay: Distribution of conjunctival goblet cells (PAS staining), dry eye model; format: in vivo, NOD.B10.H2b mice; details: 10 days of treatment after removal of dry stress; normal 14.38±0.44, DS 10D 6.02±0.29
Method: as §1, §2
The distribution of conjunctival goblet cells according to eye drop in dry eye mice was observed.

corneal epithelial cell = assay: Corneal epithelial cell detachment (H&E), dry eye model; format: in vivo, NOD.B10.H2b mice; details: 10 days of treatment after removal of dry stress; DS 10D 2.29±0.57
Method: as §1, §2

[2] = Tear amount by phenol red-impregnated cotton threads, dry eye model; format: in vivo, NOD.B10.H2b mice; details: 10 days of treatment after removal of dry stress; normal 0.22±0.01, DS 10D 0.03±0.01
Method: Tear production was measured by a method reported using phenol red-impregnated cotton threads (Zone-Quick, Oasis, Glendora, Calif.) (Villareal A L, Farley W, Pflugfelder S C. Effect of topical ophthalmic epinastine and olopatadine on tear volume in mice. Eye Contact Lens. 2006; 32 (6): 272-276.). […] The measured lachrymal fluid in the millimeter was compared with a standard curve expressed as a cotton thread which was soaked with the expected tear amount of mouse of basic solution ([…] of 0.9% salt and 5 mL of 5 N NaOH) for 20 seconds.
The degree of tear generation was measured by phenol red-impregnated cotton threads.

VEGF, ICAM and MCP-1 = assay: Quantitative real-time RT-PCR of retina and choroid, laser CNV model; format: in vivo, C57BL/6 mice; details: mouse, 14 days after laser; 5 μg; laser-treated group increased about 55 times
Method: In order to confirm the inhibitory effect of hydroxy proline-GQDGLAGPK on neovascularization-related gene expression, RNA was extracted using RNeasy Mini kit (Qiagen) in mixture of retina and choroid of extracted mice eyeballs, and cDNA was synthesized by using oligo(dT) primer and reverse transcriptase. PCR products were amplified using the specific primer set (COSMOGENETECH, Korea) shown in Table 1 and SYBR Green PCR 2X PreMix (Enzynomics) and for the PCR conditions, the samples were incubated at 95° C. for 10 minutes, and 40 PCR cycles at 95° C. for 15 seconds, 60° C. for 30 seconds and 72° C. for 15 seconds, were performed. Relative quantification was calculated using 2-(DDCT) method [Livak and Schmittgen, 2001; DDCT=(CT, target-CT, actin) control group (CT, target-CT, actin) control group].
After 14 days of laser irradiation in mouse, RNA was extracted from retina and choroid to analyze the gene expression by real-time RT-PCR.

[3] = test system: human vascular endothelial cells (HUVEC); assay: Tubing assay (VEGF-induced tube formation); format: cell-based; details: 50 ng/ml recombinant human VEGF, 4 hours
Method: The antiangiogenic effect of hydroxy proline-GQDGLAGPK was confirmed by tubing assay using human vascular endothelial cells (HUVEC).
HUVEC cells were stained with calcein-AM and then dispensed on a Matrigel-coated 48-well plate, treated with collagen, CPI and CPII at concentrations together with 50 ng/ml of recombinant human VEGF, and after 4 hours of incubation at 37° C., tube formation was observed by fluorescence microscopy (Leica) and tube length was analyzed by Image lab software (Bio-Rad Laboratories).
Tubing assay using human vascular endothelial cells (HUVEC) was performed to confirm the anti-angiogenic effect of hydroxyl proline-GQDGLAGPK.

[4] = test system: choroidal neovascularization (CNV); assay: Laser-induced choroidal neovascularization (CNV), lesion size by retina-choroid flat-mount; format: in vivo, C57BL/6 mice; details: mouse, laser irradiation; 2 μg intraocular injection for 5 days
Method: C57BL/6 mice were purchased from Orient Bio and the animal experiments was carried out in accordance with the guidelines approved by the University of Inje (No, 2013-053) and ARVO regarding animal use for eye and vision studies. 6-week-old C57BL/6 mice were treated with diode green laser (532 nm, 150 mW, 0.1 sec, […], photocoagulator) to damage the retinal optic nerve area. […] The above experiment for each experiment group was performed using both eyes of five mice each. […]
The mouse was anesthetized and injected with 25 mg/ml of FITC-dextran in […] of retro-orbital. After 30 minutes, the mouse was euthanized and the eyeball was extracted and fixed with 10% formalin and then, the cornea and lens were removed and flat mounted on the cover glass. The neovasculature stained with FITC-dextran was observed by fluorescence microscopy (Leica) and the lesion size was measured by Image J program. […]

In the case of O=c1ccn([C@@H]2O[C@H](COP(=O)([O-])OP(=O)([O-])OP(=O)([O-])OP(=O)([O-])OC[C@H]3O[C@@H](n4ccc(=O)[nH]c4=O)[C@H](O)[C@@H]3O)[C@@H](O)[C@H]2O)c(=O)[nH]1.[Na+].[Na+].[Na+].[Na+] [DQS, reference compound], the “degree of curvature (irregularity score) of the corneal surface” value (corneal surface) is reported as 3.0±1.0 points, the conjunctival goblet cells [1] is reported as 8.86±0.29 /0.1 mm^2 and the “corneal epithelial cell detachment” value (corneal epithelial cell) is reported as 0.095±0.17 /0.1 mm^2. For the same molecule, the tear amount [2] was 0.16 ± 0.02 µL.
In the case of “Avastin: a remedy of an age-related macular degeneration; positive control [reference compound]”, the “VEGF gene expression in retina and choroid” value (VEGF, ICAM and MCP-1) is reported as “decreased to the level similar to that of the laser-untreated group”.
In the case of GDRGD [CPI], the “inhibition of tube formation (angiogenesis)” value [3] is reported as “significant inhibition of angiogenesis” and the CNV lesions [4] is reported as “reduced; also recorded: decreased”.
With collagen [reference compound] the “inhibition of tube formation (angiogenesis)” value [3] was “significant inhibition of angiogenesis”, the CNV lesions [4] was “reduced; also recorded: decreased” and the “degree of curvature (irregularity score) of the corneal surface” value (corneal surface) was 3.67±1.16 points. For the same molecule, the conjunctival goblet cells [1] was 11.05±0.33 /0.1 mm^2, the “corneal epithelial cell detachment” value (corneal epithelial cell) was 0.86±0.29 /0.1 mm^2 and the tear amount [2] was 0.13 ± 0.02 µL.
